According to patent publication US8809344B2, “Compounds, compositions, and methods for control of hepatitis C viral infections” (priority 2008, dated 2014):

Assays:
[1] = system: genotype 1b (Con1 strain) replicon with NS4B S1949Y mutation; experiment: S1949Y mutant reporter replicon IVT RNA in Huh7.5 cells; assay type: cell-based; settings: Hepatitis C virus
Description: To identify nucleotide changes that confer resistance to 80978, replicon RNA was reverse transcribed and amplified from total RNA extracted from 80978-resistant and control Clone A cells. […] One silent mutation at amino acid 1771 was also observed. Each mutation was introduced independently into a stable genotype 1b (Con1 strain) subgenomic reporter replicon plasmid via site-directed mutagenesis. […] The sequence of the wild type NS4B encoding sequence is provided as SEQ ID NO:1, the sequence of the mutated NS4B nucleotide sequence encoding the F1809V mutation is provided as SEQ ID NO:3, and the sequence of the mutated NS4B nucleotide sequence encoding the F1809L mutation is provided as SEQ ID NO:5. The sequence of the wild type NS4B protein is provided as SEQ ID NO:2, the sequence of the mutated NS4B protein with the F1809V mutation is provided as SEQ ID NO:4, and the sequence of the mutated NS4B nucleotide sequence encoding the F1809L mutation is provided as SEQ ID NO:6. […] A differential response was observed between cells electroporated with different replicon RNAs.

[2] = system: genotype 2a replicon encoding genotype 1b NS4B amino acids 53 to 218; experiment: Chimeric genotype 1b/2a replicon (NS4B aa 53 to 218 from 1b) in Huh7.5 cells; assay type: cell-based, hepatitis C virus
Description: That NS4B is the target of 80978 was confirmed by a complementary approach. The differential response to 80978 by HCV genotype 1b and 2a replicons allowed the use of chimeric replicons to narrow down the region of the HCV genotype 1b NS4B coding region that confers sensitivity to 80978. The nucleotide sequence of the wild type HCV genotype 2a NS4B is provided as SEQ ID NO: 7 and the wild type HCV genotype 2a NS4B protein sequence is provided as SEQ ID NO:8. Using a plasmid containing an 80978-resistant stable HCV genotype 2a subgenomic reporter replicon cDNA, six replacement, or chimeric constructs were made, where the regions encoding the following amino acids of NS4B were replaced with the regions encoding the corresponding amino acids of NS4B from HCV genotype 1b: (i) 7-254, (ii) 7-52, (iii) 53-254, (iv) 219-254, (v) 7-52 and 219-254, and (vi) 53 to 218. The full-length NS4B protein is 261 amino acids in length and is provided as SEQ ID NO:2. Thus, if any of these segments of NS4B from genotype 1b are sufficient to confer 80978-sensitivity to a genotype 2a HCV replicon, it will render the chimeric genotype 1b/genotype 2a replicon sensitive to the compound.
Response to 80978 was measured initially in unselected cells. […] All of the chimeric and wild type control constructs were responsive to Cyclosporin A (CsA).

[3] = Cell viability (CC50) in the Clone VI RT-PCR experiment; assay type: cell-based; settings: human, Experiment 1, genotype 1b
Experimental: Inhibition of HCV replication by compound AP0080978 (enantiomer 2 from Example 1) was also assayed by exposing cells harboring either HCV genotype 1a, HCV genotype 1b, HCV genotype 2a replicons. […] Final DMSO percentage was 1% in a total volume of 1 ml. After a 72 hour treatment period, total RNA was extracted, quantified via RiboGreen™ assay (Invitrogen-Molecular Probes, Eugene, Oreg., USA), and equivalent amounts of RNA were subjected to quantitative RT-PCR to quantify HCV RNA levels. […] For each replicate culture, HCV RNA levels were measured by blot hybridization and normalized to β-actin RNA levels. Cytotoxicity was measured using an established neutral red dye uptake assay (Korba and Gerin (1992) Antiviral Res 19:55; Okuse et al (2005) Antiviral Res 65: 23). […] Activity and toxicity against genotype 2a was evaluated in Huh7 cells harboring a stable hRluc-containing subgenomic genotype 2a replicon containing sequence from both J6 and JFH1 strains. […]
Additional compounds of formula (I) shown in FIG. 1 were also shown to inhibit HCV RNA replication. The effects of various compounds of formula (I) on HCV RNA replicon levels were determined by measuring HCV replicon RNA levels in cells treated with various concentrations of the compounds. […] Total RNA was extracted 72 hours later, and HCV and GAPDH RNA levels were quantified via quantitative RT-PCR. […]

With `O=C(NCc1cccs1)c1nn2c(c1Cl)N[C@H](c1ccco1)C[C@@H]2C(F)(F)F` (single isomer, unassigned) [Compound 80978] the EC50 [1] was 410 nM, the “response to 80978” value ([2]; Geneticin-selected stable replicon-containing cells, amino acids 53-218) was “responsive” and the EC50 ([2]; Hepatitis C virus, Huh7.5) was under 2500 nM. For the same compound, the CC50 at 72 h [3] was over 100000 nM.
